How the values were obtained:
Type in all cases: cell-based, human
[1] = system: p53, MDM2 and p21 in MM1s and NCI-H929 cells; test: Western blot of p53, MDM2, p21 after miRNA or ASO transfection and Nutlin-3a; conditions: 72 hr after transfection, 12 hr Nutlin-3a (10 μM); for expression of MDM2 protein: both cell lines; for level of p53 and p21: vs Scr-transfected cells, p<0.001
Experimental: FIG. 4A: MM1s and NCIH929 cells (pre-miRNA-192, pre-miRNA-194, pre-miRNA-215, Scr sequence-transfected) were harvested at 72 hr after transfection and 12 hr Nutlin-3a treatment (10 μM). Whole cell lysates were subjected to Western blotting using p53, MDM2, p21, and Gapdh antibodies. Densitometric analysis showing the effect of miR-194 (white bars), miR-192 (grey bars), miR-215 (black bars) compared to Scr sequence (green bars) transfected cells of endogenous p53, MDM2 and p21 in MM1s (FIG. 4B) and NCI-H929 (FIG. 4C) Nutlin-3a treated.
FIG. 4D: Immununoblot analysis showing p53, MDM2 and p21 protein expression after 48 hr of miR192, miR-194, miR-215 (pool) and Scr ASOs transfection in MM1s and NCI-H929 cells after 12 hr of treatment with 10 μM Nutlin-3a.
Samples were extracted in 15 mM Tris.Cl, pH 7.5/120 mM NaCl/25 mM KCl/2 mM EGTA/0.1 mM DTT/0.5% Triton X-100/[…] leupeptin/0.5 mM PMSF. Total protein (35 μg) from each sample was separated on a 4-20% Tris-HCl-Criterion precast gel Bio-Rad (cat#345-0032, Hercules, Calif.) and transferred to a poly(vinylidene difluoride) filter (Millipore). The filter was blocked in 5% nonfat dry milk, incubated with the specific antibody, washed, and probed with secondary antibody IgG conjugated to horseradish peroxidase (Santa Cruz Biotechnology), and developed with enhanced chemiluminescence (Amersham Pharmacia). Immunoblot analyses were performed using the following antibodies: p53 (sc-53394, Santa Cruz Biotechnology), MDM2 (sc-965, Santa Cruz Biotechnology), phospho-MDM2 (Cat#3521, Cell Signaling), c-MYC (cs-40, Santa Cruz Biotechnology), IGF-1 (sc-9013, Santa Cruz Biotechnology), IGF-1R (Cat#3027, Cell Signaling), total-Akt (Cat#9272, Cell signaling), phospho-Akt (Cat#4060, Cell Signaling), total-S6 (Cat#2217, Cell Signaling), phospho-S6 (Cat#2211, Cell Signaling), p21 (sc-817, Santa Cruz Biotechnology), α-PUMA (Cat#4976, Cell Signaling), GAPDH (Cat#2118, Cell Signaling). Filters were reprobed with enzyme-conjugated antibodies to GFP and β-actin (Santa Cruz Biotechnology).
MM cells (from MM subjects or from cell lines) non-transfected or transfected with pre- or ASOs miR-192, miR-215, miR-194 and Scr sequence as described above, were treated with MDM2 inhibitor (Nutlin3a and MI-219). Fresh CD138+ primary PCs isolated from new diagnosed MM subjects as previously described were maintained in culture for 24 hr and then treated for 24 hr with 10 μM Nutlin-3a (Cayman Chemical Company) or vehicle (DMSO). For transfected cells at 24 hrs after transfection MM cells were treated with 10 μM Nutlin-3a (Cayman Chemical Company) or DMSO vehicle only at different time points. […]

[2] = system: MDM2 mRNA in MM1s and NCI-H929 cells; test: RT-PCR of MDM2 mRNA after miRNA transfection and Nutlin-3a; conditions: transfected cells at 6 and 12 hr of Nutlin-3a treatment, both cell lines
Experimental: FIG. 4F: MDM2 mRNA expression normalized for GAPDH mRNA expression in MM1s and NCIH929 cells miRNAs or Scr transfected after Nutlin-3a treatment (6-12 hr).
RNA was isolated from cell lines using Trizol reagent (Invitrogen) as per the manufacturer's protocol. An aliquot of 5 μg RNA was then used for cDNA synthesis using the SuperScript first strand cDNA synthesis kit (Invitrogen). RT-PCRs were carried out using ABI Prism 7900HT sequence detection systems with Applied Biosystems TaqMan Gene expression assays (p21 (CDKN1A):Hs01121172_ml; MYC:Hs99999003_ml; TP53:Hs00153349_ml; MDM2: Hs01066938_ml).

[3] = system: IGF-1R and IGF-1 in MM1s cells; test: Western blot of IGF-1R and IGF-1 after miRNA transfection; conditions: pre-miRNA transfected
Experimental: FIG. 6A, FIG. 6B: Western blot showing IGF-1R and IGF-1 expression after miR-192 and miR-215 transfection using pre (FIG. 6A) and ASOs (FIG. 6B) for miR-192, miR-215, miR-194 and Scr in MM1s cells treated for 12 hr with Nutlin-3a.
Samples were extracted in 15 mM Tris.Cl, pH 7.5/120 mM NaCl/25 mM KCl/2 mM EGTA/0.1 mM DTT/0.5% Triton X-100/[…] leupeptin/0.5 mM PMSF. Total protein (35 μg) from each sample was separated on a 4-20% Tris-HCl-Criterion precast gel Bio-Rad (cat#345-0032, Hercules, Calif.) and transferred to a poly(vinylidene difluoride) filter (Millipore). The filter was blocked in 5% nonfat dry milk, incubated with the specific antibody, washed, and probed with secondary antibody IgG conjugated to horseradish peroxidase (Santa Cruz Biotechnology), and developed with enhanced chemiluminescence (Amersham Pharmacia). […]

KMS-28BM cells = test: Cell cycle analysis by flow cytometry (sub-G1); conditions: 48 hr after transfection; Scr control ~3%
Experimental: FIG. 3G, FIG. 3H, FIG. 31, FIG. 3J: Flow cytometry analysis in MM1s (FIG. 3G), NCI-H929 (FIG. 3H) and KMS28BM (FIG. 31) cells (miR-192, miR-194, miR-215 and Scr transfected) at 48 hr of transfection, after first being arrested and synchronized in G2/M phase by Nocodazole for 16 hr. Apoptosis in KMS28BM was evaluated by caspase-3 activity (FIG. 3J). All experiments were performed in triplicate ±SD.
Nocodazole was (Sigma-Aldrich) was dissolved in DMSO as a stock solution of 10 mg/ml for cell cycle arrest in G2/M phase. Cells were first arrested and synchronized in G2/M phase by growth in 80 nM nocodazole for 16 hr. Cells were then washed and fresh medium added. After 6 hr, cell cycle analysis was performed by propidium iodide staining. Corresponding amounts of DMSO alone were added in control experiments. […] For DNA content analysis, cells were fixed in methanol at −20° C., washed again, rehydrated, re-suspended in PBS containing 50 μg/ml propidium iodide (PI) and 50 μg/ml RNase A, and analyzed by flow cytometry (Becton Dickinson). […] After the treatment the cells were analyzed using Caspase-Glo 3 Assay kit (Promega) according to the manufacturer's instructions. Continuous variables were expressed as mean values ± standard deviation (s.d.).

Substance | expression of MDM2 protein [1] | level of p53 and p21 [1] | MDM2 mRNA levels [2] | IGF-1R and IGF-1 protein levels [3] | sub-G1 fraction (indicative of cell death) (KMS-28BM cells)
miR-192: microRNA, p53-activated, down-regulated in MM; transfected as miRNA precursor (Ambion) or lentivector; SEQ ID NO:56 (CUGACCUAUGAAUUGACAGCC; listed as RNA, chemistry not given here; listed as Homo sapiens) | dramatically decreased | significantly increased | strongly reduced | decreased | ~25%
miR-215: microRNA, p53-activated, down-regulated in MM; transfected as miRNA precursor (Ambion) or lentivector; SEQ ID NO:58 (AUGACCUAUGAAUUGACAGAC; listed as RNA, chemistry not given here; listed as Homo sapiens) | dramatically decreased | significantly increased | strongly reduced | decreased | 30%
